Experiments:
[1] = target: CYP2D6 (Homo sapiens (Human), UniProt P10635); assay: Inhibition of enzyme activity of CYP2D6 in human liver microsome; assay type: in vitro ADME; conditions: dextromethorphan probe substrate, 30 minutes, read-out: IC50 of the inhibition effect on CYP2D6 enzyme
Procedure: The effect of the compounds of the present invention on the enzyme activity of CYP2D6 in human liver microsome was determined by the following experimental method.
(§1) • 1. Phosphate buffer solution (PBS); • 2. NADPH (Sigma N-1630); • 3. Human liver microsome (Corning Gentest); • 4. ABI QTrap 4000 liquid chromatograph/mass spectrometer (AB Sciex); • 5. Inertsil C8-3 column, 4.6×50 mm, 5 μm (Dikma Technologies Inc., USA); and • 6. CYP probe substrate (20 μM dextromethorphan, SIGMA Q0750) and positive control inhibitor (quinidine, SIGMA D9684). II. Experimental Procedures
(§2) 100 mM PBS buffer was formulated, which was then used to formulate 2.5 mg/ml human microsome solution and 5 mM NADPH solution. The 5× concentration of the compound working solution was diluted with PBS in gradients (150, 50, 15, 5, 1.5, 0.15, 0.015, 0 μM). The 5× concentration of quinidine working solution was diluted with PBS in gradients (150, 50, 15, 5, 1.5, 0.15, 0.015, 0 μM). Dextromethorphan working solution was diluted with PBS to a concentration of 20 μM.
(§3) 20 μl of 2.5 mg/ml microsome solution, 20 μl of 20 μM dextromethorphan working solution, 20 μl of MgCl2 solution and 20 μl of the compound working solution (150, 50, 15, 5, 1.5, 0.15, 0.015, 0 μM, different reaction systems for each concentration) were mixed well. For the positive control group, the compound was replaced with the same concentration of quinidine. The mixture together with 5 mM NADPH solution was pre-incubated at 37° C. for 5 minutes. After 5 minutes, 20 μl of NADPH was added to each well, the reaction was initiated, and the plate was incubated for 30 minutes. All the incubated samples were present in duplicate. After 30 minutes, 250 μl of acetonitrile containing internal standard (100 ng/ml camptothecin) was added to all samples, mixed well, shaken at 800 rpm for 10 minutes, and then centrifuged at 3700 rpm for 10 minutes. 80 μl of the supernatant was taken and analyzed by LC-MS/MS.
The data was calculated by Graphpad Prism to obtain the IC50 values of the inhibition effect of the present compounds on CYP2D6 enzyme, which are shown in Table 3.

[2] = target: CYP3A4 (testosterone metabolite site) (Homo sapiens (Human), UniProt P08684); assay: Inhibition of enzyme activity of testosterone metabolite site of CYP3A4 in human liver microsomes; assay type: in vitro ADME; conditions: human liver microsome, testosterone probe substrate, 30 minutes
Procedure: The effect of the compounds of the present invention on the enzyme activity of testosterone metabolite site of CYP3A4 in human liver microsomes was determined by the following experimental method.
as §1, with “(testosterone/100 μM,” for “(20 μM dextromethorphan,”, “[…])” for “Q0750)”, “(ketoconazole, Dr. Ehrenstorfer GmbH, C17322500).” for “(quinidine, SIGMA D9684).”
as §2, with “ketoconazole” for “quinidine”, “50” for “20”
as §3, with “of 50” for “of 20”, “μM testosterone” for “μM dextromethorphan”, “of ketoconazole.” for “of quinidine.”
The data was calculated by Graphpad Prism to obtain the IC50 values of the compounds on the testosterone metabolite site of CYP3A4, which are shown in Table 4.

[3] = target: human TLR7 (Homo sapiens (Human), UniProt Q9NYK1); assay: Agonist activity on human TLR7 in HEK-Blue hTLR7 cells; assay type: cell-based; conditions: 16 hours, OD 620 nm
Procedure: • 1. DMEM(Gibco, 10564-029); • 2. Fetal bovine serum (GIBCO, 10099); • 3. Trypan blue solution (Sigma, T8154-100 ML); • 4. Flexstation 3 multi-function microplate reader (Molecular Devices); • 5. HEK-Blue™ hTLR8 cell line (InvivoGen, hkb-hTLR8), or HEK-Blue™ hTLR7 cell line (InvivoGen, hkb-hTLR7); • 6. HEK-Blue detection reagent (InvivoGen, hb-det3); and • 7. Phosphate buffer solution (PBS) pH 7.4 (Shanghai Basalmedia Technologies Co., Ltd., B320). II. Experimental Procedures a. Determination of Agonist Activity on Human TLR8
A bag of HEK-Blue detection dry powder was dissolved in 50 ml of water free of endotoxin, and the solution was then placed in an incubator at 37° C. for 10 minutes followed by sterile filtration to prepare a HEK-Blue detection medium. The compound was firstly formulated into a 20 mM stock solution, then diluted with pure DMSO to a maximum concentration of 6×10^6 nM, and a total of 10 points were obtained by a 3-fold gradient dilution. The above formulated compound was firstly diluted 20-fold with the medium, then 20 μl of the diluted compound was added to each well.
The supernate was removed from the HEK-Blue™ hTLR7 cells, to which 2-5 ml of pre-warmed PBS was then added. The cells were placed in an incubator for 1-2 minutes, gently pipetted, and counted by trypan blue staining. The cells were re-suspended in the HEK-Blue detection medium to adjust the concentration to 2.2×10^5 cells/ml. 180 μl of cells was added to the above 96-well plate comprising 20 μl of the compound, and incubated at 37° C. for 16 hours.
The corresponding OD values were obtained by a microplate reader at a wavelength of 620 nm, and the EC50 values of the compounds were calculated by Graphpad Prism.

Chain of CYP2D6 (P10635 whole entry): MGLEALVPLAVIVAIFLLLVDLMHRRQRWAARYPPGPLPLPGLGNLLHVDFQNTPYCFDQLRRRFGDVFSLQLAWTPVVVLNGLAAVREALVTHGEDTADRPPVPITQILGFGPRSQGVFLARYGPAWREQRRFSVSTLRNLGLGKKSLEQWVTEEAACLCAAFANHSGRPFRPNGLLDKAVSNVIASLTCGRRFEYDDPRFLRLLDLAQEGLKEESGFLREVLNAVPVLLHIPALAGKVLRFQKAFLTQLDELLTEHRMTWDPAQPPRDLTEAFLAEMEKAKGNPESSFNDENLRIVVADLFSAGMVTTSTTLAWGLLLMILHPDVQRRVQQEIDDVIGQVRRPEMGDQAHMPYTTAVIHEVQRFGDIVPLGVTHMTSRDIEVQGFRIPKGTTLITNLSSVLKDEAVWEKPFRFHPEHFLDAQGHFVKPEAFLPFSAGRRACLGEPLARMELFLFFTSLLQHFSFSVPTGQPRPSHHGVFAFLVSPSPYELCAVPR
Chain of human TLR7 (Q9NYK1 27-1049): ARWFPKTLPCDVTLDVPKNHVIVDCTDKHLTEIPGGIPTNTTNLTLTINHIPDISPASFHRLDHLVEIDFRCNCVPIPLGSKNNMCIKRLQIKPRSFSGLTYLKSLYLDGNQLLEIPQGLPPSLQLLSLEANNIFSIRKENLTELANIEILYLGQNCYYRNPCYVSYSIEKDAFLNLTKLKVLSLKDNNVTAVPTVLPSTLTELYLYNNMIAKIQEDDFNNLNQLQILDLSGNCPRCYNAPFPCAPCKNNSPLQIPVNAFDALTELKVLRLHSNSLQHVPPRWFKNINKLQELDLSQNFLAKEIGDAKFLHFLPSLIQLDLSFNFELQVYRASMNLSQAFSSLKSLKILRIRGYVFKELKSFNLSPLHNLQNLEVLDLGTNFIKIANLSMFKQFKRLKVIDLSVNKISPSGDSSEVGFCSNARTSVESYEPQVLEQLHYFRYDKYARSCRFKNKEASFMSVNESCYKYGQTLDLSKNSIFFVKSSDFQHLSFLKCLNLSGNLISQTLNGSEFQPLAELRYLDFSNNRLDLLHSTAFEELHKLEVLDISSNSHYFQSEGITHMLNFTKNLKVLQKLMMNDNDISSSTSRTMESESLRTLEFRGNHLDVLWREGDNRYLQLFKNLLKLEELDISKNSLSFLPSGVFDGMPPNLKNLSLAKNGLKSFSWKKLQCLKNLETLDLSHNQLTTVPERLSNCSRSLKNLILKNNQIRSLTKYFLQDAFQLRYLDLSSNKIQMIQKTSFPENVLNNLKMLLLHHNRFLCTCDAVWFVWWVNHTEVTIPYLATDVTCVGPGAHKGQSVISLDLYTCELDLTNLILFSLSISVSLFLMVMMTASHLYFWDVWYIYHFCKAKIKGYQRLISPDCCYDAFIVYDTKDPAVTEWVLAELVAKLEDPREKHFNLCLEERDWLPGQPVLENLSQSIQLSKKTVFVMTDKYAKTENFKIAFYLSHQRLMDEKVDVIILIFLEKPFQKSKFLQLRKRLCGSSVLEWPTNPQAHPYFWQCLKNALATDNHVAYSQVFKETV
Chain of CYP3A4 (testosterone metabolite site) (P08684 whole entry): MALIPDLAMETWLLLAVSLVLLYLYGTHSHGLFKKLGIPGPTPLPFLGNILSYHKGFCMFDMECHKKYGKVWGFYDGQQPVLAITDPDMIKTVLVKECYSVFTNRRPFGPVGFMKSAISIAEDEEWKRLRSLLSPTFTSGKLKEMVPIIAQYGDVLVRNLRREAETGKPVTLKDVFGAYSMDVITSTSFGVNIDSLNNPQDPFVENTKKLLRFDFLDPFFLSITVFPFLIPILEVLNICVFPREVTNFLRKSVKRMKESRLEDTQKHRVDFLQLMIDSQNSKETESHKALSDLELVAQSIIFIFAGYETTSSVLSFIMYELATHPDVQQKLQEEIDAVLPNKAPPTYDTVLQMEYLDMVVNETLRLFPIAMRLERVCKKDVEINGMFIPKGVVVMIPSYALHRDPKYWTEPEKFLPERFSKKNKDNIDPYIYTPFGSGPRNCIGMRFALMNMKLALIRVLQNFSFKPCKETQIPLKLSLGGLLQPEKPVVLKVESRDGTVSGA

**Q.** With `CCCC[C@](C)(CO)Nc1nc(N)nc2cc(-c3ccc(CN4CCCC4)nc3)cnc12` [Example 2, (R)-2-((2-Amino-7-(6-(pyrrolidin-1-ylmethyl)pyridin-3-yl)pyrido[3,2-d]pyrimidin-4-yl)amino)-2-methylhexan-1-ol] as the compound, how does the IC50 [1] read?
**A.** The IC50 was over 30 µM.

**Q.** `CCCC[C@](C)(CO)Nc1nc(N)nc2cc(-c3ccc(C4CCN(C)CC4)nc3)cnc12` [Example 4, (R)-2-((2-Amino-7-(6-(1-methylpiperidin-4-yl)pyridin-3-yl)pyrido[3,2-d]pyrimidin-4-yl)amino)-2-methylhexan-1-ol] was tested. Which IC50 [1] did it give?
**A.** Its IC50 is over 30 µM.

**Q.** What about the IC50 [2] of the same compound?
**A.** The IC50 was 16 µM.

**Q.** What about the EC50 [3] of the same compound?
**A.** Its EC50 is over 30 µM.

**Q.** What about the Emax [3] of the same compound?
**A.** Its Emax is 12%.

**Q.** What does the source list for `CCCCC(C)(CO)Nc1nc(N)nc2cc(-c3ccc(CN4CCN(C)CC4)nc3)cnc12` (centres unmarked) [Example 5, 2-((2-Amino-7-(6-((4-methylpiperazin-1-yl)methyl)pyridin-3-yl)pyrido[3,2-d]pyrimidin-4-yl)amino)-2-methylhexan-1-ol]?
**A.** IC50 [1]: > 30 µM; IC50 [2]: 8.3 µM; EC50 [3]: > 30 µM; Emax [3]: 14%

**Q.** How did the IC50 [1] turn out when `CCCC[C@](C)(CO)Nc1nc(N)nc2cc(-c3ccc(CN4CCN(C)CC4)nc3)cnc12` [Example 6, (R)-2-((2-Amino-7-(6-((4-methylpiperazin-1-yl)methyl)pyridin-3-yl)pyrido[3,2-d]pyrimidin-4-yl)amino)-2-methylhexan-1-ol] was run?
**A.** The IC50 was over 30 µM.

**Q.** What about the IC50 [2] of the same compound?
**A.** The IC50 was over 30 µM.

**Q.** And the EC50 [3]?
**A.** Its EC50 is over 30 µM.

**Q.** And the Emax [3]?
**A.** Its Emax is 14%.

**Q.** How did the IC50 [1] turn out when `CCCC[C@](C)(CO)Nc1nc(N)nc2cc(-c3cnc(C4CCN(C)CC4)nc3)cnc12` [Example 8, (R)-2-((2-Amino-7-(2-(1-methylpiperidin-4-yl)pyrimidin-5-yl)pyrido[3,2-d]pyrimidin-4-yl)amino)-2-methylhexan-1-ol] was run?
**A.** The IC50 was over 30 µM.

**Q.** What about the IC50 [2] of the same compound?
**A.** The IC50 was over 30 µM.

**Q.** And the EC50 [3]?
**A.** The EC50 was over 19 µM.

**Q.** And the Emax [3]?
**A.** The Emax was 73%.
